Like-named read-outs stand apart in the source and are kept apart here.
Legend:
[1] = test system: 60 cancer cell lines (NCI 60 cancer cell line series); conditions: cited from earlier work
[2] = test system: 60 cancer cell lines (NCI 60 cancer cell line series); assay: NCI-DTP in vitro cancer screen, sulforhodamine B (SRB) growth inhibition, 48 hour exposure; format: cell-based, human
Procedure, shortened: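 NCI-DTP panel of 60 cancer cell lines plated day 0 at line-specific densities, exposed from day 1 to compound at 5 ten-fold-spaced doses in duplicate wells. After 48 h, cell mass stained with sulforhodamine B; −log GI50 derived from dose–response curves, averaged, and classed Low, Medium or High sensitivity.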

For `O=c1[nH]cc(F)c(=O)[nH]1` [5-Fluorouracil], the “−Log (GI50)” value ([1]; Melanoma SK-MEL-2 CL10005) is given as 3.3, the “−Log (GI50)” value ([1]; Melanoma SK-MEL-5 CL10007) is given as 4.9 and the “−Log (GI50)” value ([1]; Melanoma SK-MEL-28 CL10008) is given as 4.5. For the same molecule, the “−Log (GI50)” value ([1]; Melanoma UACC-62 CL10020) was 4.9, the “−Log (GI50)” value ([1]; Melanoma UACC-257 CL10021) was 3.9 and the “−Log (GI50)” value ([1]; NSCLC A549/ATCC CL1004) was 5.7. For the same molecule, the “−Log (GI50)” value ([1]; NSCLC EKVX CL1008) was 3.3, the “−Log (GI50)” value ([1]; NSCLC HOP-62 CL1026) was 4.8 and the “−Log (GI50)” value ([1]; NSCLC HOP-92 CL1029) was 4.0. The “−Log (GI50)” value ([1]; NSCLC NCI-H226 CL1013) was 3.6, the “classification of cell line as Low(1), Medium(2), High(3) sensitivity to compound” value (from here on “classification of cell line”) ([2]; Breast BT-549 CL5013) was 1 and the “classification of cell line” value ([2]; Breast HS-578T CL5006) was 1. The “classification of cell line” value ([2]; Breast MCF7(I) CL5001) was 3, the “classification of cell line” value ([2]; Breast MCF7/ADRr CL5002) was 2 and the “classification of cell line” value ([2]; Breast MDA-MB-231 CL5005) was 1. The “classification of cell line” value ([2]; Breast MDA-MB-435 CL5011) was 2, the “classification of cell line” value ([2]; Breast MDA-N CL5012) was 2 and the “classification of cell line” value ([2]; Breast T-47D CL5014) was 2. For the same molecule, the “classification of cell line” value ([2]; CNS SF-268 CL12014) was 2, the “classification of cell line” value ([2]; CNS SF-295 CL12015) was 2 and the “classification of cell line” value ([2]; CNS SF-539 CL12016) was 3. The “classification of cell line” value ([2]; CNS SNB-19 CL12002) was 1, the “classification of cell line” value ([2]; CNS SNB-75(I) CL12005) was 1 and the “classification of cell line” value ([2]; CNS U251(I) CL12009) was 2. The “classification of cell line” value ([2]; Colon COLO-250 CL4010) was 2, the “classification of cell line” value ([2]; Colon HCC-2998 CL4002) was 3 and the “classification of cell line” value ([2]; Colon HCT-15 CL4015) was 2. For the same molecule, the “classification of cell line” value ([2]; Colon HCT-116 CL4003) was 3, the “classification of cell line” value ([2]; Colon HT29(I) CL4001) was 2 and the “classification of cell line” value ([2]; Colon KM12 CL4017) was 2. For the same molecule, the “classification of cell line” value ([2]; Colon SW-620 CL4009) was 2, the “classification of cell line” value ([2]; Leukemia CCRF-CEM(I) CL7003) was 2 and the “classification of cell line” value ([2]; Leukemia HL-60(I) CL7008) was 2. The “classification of cell line” value ([2]; Leukemia K562(I) CL7005) was 2, the “classification of cell line” value ([2]; Leukemia MOLT-4 CL7006) was 2 and the “classification of cell line” value ([2]; Leukemia RPMI-8226(I) CL7010) was 3. The “classification of cell line” value ([2]; Leukemia SR CL7019) was 2, the “classification of cell line” value ([2]; Melanoma LOX IMVI CL10001) was 2 and the “classification of cell line” value ([2]; Melanoma M14 CL10014) was 2. The “classification of cell line” value ([2]; Melanoma MALME-3M CL10002) was 2, the “classification of cell line” value ([2]; Melanoma SK-MEL-2 CL10005) was 1 and the “classification of cell line” value ([2]; Melanoma SK-MEL-28 CL10008) was 2. For the same molecule, the “sensitivity classification Low(1)/Medium(2)/High(3)” value ([2]; NSCLC NCI-H23(I) CL1001) was 2, the “sensitivity classification Low(1)/Medium(2)/High(3)” value ([2]; NSCLC NCI-H332M CL1017) was 2 and the “sensitivity classification Low(1)/Medium(2)/High(3)” value ([2]; NSCLC NCI-H460 CL1021) was 3. The “sensitivity classification Low(1)/Medium(2)/High(3)” value ([2]; NSCLC NCI-H522 CL1003) was 2, the “sensitivity classification Low(1)/Medium(2)/High(3)” value ([2]; Ovarian IGROV1 CL6010) was 2 and the “sensitivity classification Low(1)/Medium(2)/High(3)” value ([2]; Ovarian OVCAR-3 CL6001) was 2. The “sensitivity classification Low(1)/Medium(2)/High(3)” value ([2]; Ovarian OVCAR-4 CL6002) was 2, the “sensitivity classification Low(1)/Medium(2)/High(3)” value ([2]; Ovarian OVCAR-5 CL6003) was 1 and the “sensitivity classification Low(1)/Medium(2)/High(3)” value ([2]; Ovarian OVCAR-8 CL6005) was 2. The “sensitivity classification Low(1)/Medium(2)/High(3)” value ([2]; Ovarian SK-OV-3 CL6011) was 1, the “sensitivity classification Low(1)/Medium(2)/High(3)” value ([2]; Prostate DU-145 CL11003) was 2 and the “sensitivity classification Low(1)/Medium(2)/High(3)” value ([2]; Prostate PC-3(I) CL11001) was 2. The “sensitivity classification Low(1)/Medium(2)/High(3)” value ([2]; Renal 786-0 CL9018) was 2, the “sensitivity classification Low(1)/Medium(2)/High(3)” value ([2]; Renal A498 CL9013) was 2 and the “sensitivity classification Low(1)/Medium(2)/High(3)” value ([2]; Renal ACHN CL9023) was 2. The “sensitivity classification Low(1)/Medium(2)/High(3)” value ([2]; Renal CAKI-1 CL9015) was 3, the “sensitivity classification Low(1)/Medium(2)/High(3)” value ([2]; Renal RXF-393 CL9016) was 2 and the “sensitivity classification Low(1)/Medium(2)/High(3)” value ([2]; Renal SN12C CL9008) was 2. For the same molecule, the “sensitivity classification Low(1)/Medium(2)/High(3)” value ([2]; Renal TK10 CL9024) was 1 and the “sensitivity classification Low(1)/Medium(2)/High(3)” value ([2]; Renal UO-31 CL9004) was 2.
